In patent US8207230B2, “Functional role for cannabinoids in autonomic stability during sleep” (The Board of Trustees of the University of Illinois, priority 2001, dated 2012):

What was measured:
Sprague-Dawley rats [1] = assay: Spontaneous sleep apnea (apnea index) by plethysmography in freely moving rats; format: in vivo; settings: rat; for breaths with long duration in typical 6-hour recordings (FIG. 1A): vs vehicle recording; for time dependence of apnea suppression during the 6-hour recording period: NREM and REM sleep; for degree of apnea suppression, Δ^9THC compared with oleamide: highest dose (10.0 mg/kg)
Experimental: These recoding and data analysis methods have been described in detail elsewhere [Carley and Radulovacki (Chest., 115: 1397 (1999)].
Adult, male Sprague-Dawley rats (Sasco-King, Wilmington, Mass.; 11 per test group; 300 g) were maintained on a 12-hour light (08:00-20:00 hour)/12-hour dark (20:00-08:00 hour) cycle for one week, housed in individual cages and given ad libitum access to food and water. Following the one week of acclimatization, animals were subjected to the following surgical procedures.
(§1) Δ^9THC (dronabinol, Roxane Laboratories, Columbus, Ohio) was dissolved in DMSO: oleamide (ICN Biomedicals, Aurora, Ohio) was suspended in peanut oil with sonication for 20 minutes; and serotonin was dissolved in saline. The study was a fully nested, repeated measures crossover design, such that each animal received each of 12 intraperitoneal injections (1 ml/kg) exactly one time: vehicle alone (saline, DMSO, or peanut oil); Δ^9THC alone (0.1, 1.0, or 10.0 mg/kg); oleamide alone (0.1, 1.0, or 10.0 mg/kg); serotonin alone (0.79 mg/kg); or combination injection (0.1 mg/kg Δ^9THC followed, after 15 minutes, by 0.79 mg/kg serotonin or 0.1 mg/kg oleamide followed by 0.79 mg/kg serotonin). Each injection was made 15 minutes prior to polygraphic recording for 6 hours (10:00-16:00). Successive recordings for an individual animal were separated by at least three days and the treatments were given in random order.
(§2) Respiration was recorded by placing each animal, unrestrained, inside a single chamber plethysmograph (PLYUN1R/U; Buxco Electronics, Sharon, Conn.; dimension 6 in.×10 in.×6 in.) ventilated with a bias flow of fresh room air at a rate of 2 L/min. A cable plugged onto the animal's connector and passed through a sealed port was used to carry the bioelectrical activity from the head implant.
Sleep and waking states were assessed using the biparietal EEG and nuchal EMG signals on 10-second epochs as described by Bennington et al. [Sleep 17:28-36 (1994)]. This software discriminated wakefulness (W) as a high frequency low amplitude EEG with a concomitant high EMG tone, NREM sleep by increased spindle and […] activity together with decreased EMG tone, and REM sleep by a low ratio of a delta to theta activity and an absence of EMG tone. Sleep efficiency was measured as the percentage of total recorded epochs staged as NREM or REM sleep.
(§3) An accepted physiological animal model [rat; Monti, et al., Pharamcol. Biochem. Behav., 51:125-131; (1995)] of sleep apnea was used to assess the effects of a cannabinoid receptor agonist activity and/or agents having cannabimimetic activity. More specifically, sleep apneas, defined as cessation of respiratory effort for at least 2.5 seconds, were scored for each recording session and were associated with the stage in which they occurred: NREM or REM sleep. The duration requirement of 2.5 seconds represented at least 2 “missed” breaths, which is therefore analogous to a 10 second apnea duration requirement in humans, which also reflects 2-3 missed breaths. The events detected represent central apneas because decreased ventilation associated with obstructed or occluded airways would generate an increased plethysmographic signal, rather than a pause. An apnea index (AI), defined as apneas per hour in a stage was separately determined for NREM and REM sleep. The effects of sleep stage (NREM vs. REM) and injection (control vs. test compounds) were tested using ANOVA with repeated measures. Multiple comparisons were controlled using Fisher's protected least significant difference (PLSD). In addition, the timing and volume of each breath were scored by automatic analysis (Experimenters' Workbench; Datawave Technologies, Longmont, Colo.). For each animal the mean respiratory rate (RR) and minute ventilation (MV) was computed for W throughout the 6 hour control recording and used as a baseline to normalize respiration during sleep and during test compound administration in that animal. […]

Sprague-Dawley rats [2] = assay: Respiratory rate, minute ventilation and tidal volume by plethysmography; format: in vivo; settings: rat; for average respiratory rate (RR) / respiratory minute ventilation: intraperitoneal; for respiratory minute ventilation: compared with the effects on RR
Experimental: as §1, §2
The bias flow of room air (2 l/min) was more than one order of magnitude greater than the alveolar ventilation of the rat, ensuring that no rebreathing occurred. Thermal fluctuations associated with tidal respiration induced changes in plethysmograph pressure proportional to tidal volume. Plethysmograph pressure was monitored using a Validyne DP45-14 differential pressure transducer (±2 cm H20). Prior to each experimental study, the plethysmograph was calibrated for tidal volume using the method described by Epstein et al. (J. Appl. Physiol., 49, 1107 (1980)). An adaptive threshold algorithm (Datawave Systems, Longmont, Colo.) was used to measure the duration and tidal amplitude of each breath in each recording. From these values, instantaneous respiratory rate (RR) and minute ventilation (MV) were computed on a breath by breath basis. Respiratory variability was assessed by calculating the standard deviations of RR and MV for each 10 second recording epoch. These standard deviations were then averaged separately for each sleep/wake state.
as §3

Sprague-Dawley rats [3] = assay: Sleep/wake architecture by EEG/EMG recording; format: in vivo; settings: rat, intraperitoneal; for sleep/wake architecture: 6 hour recording
Experimental: Acclimatized animals were anesthetized for the implantation of cortical electrodes for electroencephalogram (EEG) recording and neck muscle electrodes for electromyogram (EMG) recording using a mixture of ketamine (Vedco, Inc., St. Joseph, Mo.; 80 mg/ml) and xylazine (Vedco, Inc., St. Joseph, Mo.; 5 mg/ml; 4:1, volume/volume) at a volume of 1 ml/kg body weight. The surface of the skull was exposed surgically and cleaned with a 20% solution of hydrogen peroxide followed by, a solution of 95% isopropyl alcohol. Next, a dental preparation of sodium fluoride: (Flura-GEL®, Saslow Dental, Mt. Prospect, Ill.) was applied to harden the skull above the parietal cortex and allowed to remain in place for 5 minutes. The fluoride mixture was then removed from the skull above the parietal cortex. The EEG electrodes consisting of four stainless steel machine screws, having leads attached thereto, were threaded into the skull to rest on the dura over the parietal cortex. A thin layer of Justi® resin cement (Saslow Dental, Mt. Prospect, Ill.) was applied to cover the screw heads (of screws implanted in the skull) and surrounding skull to further promote the adhesion of the implant. EMG electrodes consisting of two ball-shaped wires were inserted into the bilateral neck musculature. All leads (i.e., EEG and EMG leads) were soldered to a miniature connector (39F1401, Newark Electronics, Chicago, Ill.). Lastly, the entire assembly was fixed to the skull with dental cement.
as §1
Sleep and waking states were assessed using the biparietal EEG and nuchal EMG signals on 10-second epochs as described by Bennington et al. [Sleep 17:28-36 (1994)]. […] Sleep efficiency was measured as the percentage of total recorded epochs staged as NREM or REM sleep.

Sprague-Dawley rats [4] = assay: Serotonin-induced apnea during REM sleep; format: in vivo; settings: rat; for serotonin-induced increase in REM sleep apnea: pretreatment with 0.1 mg/kg intraperitoneal 15 minutes before 0.79 mg/kg serotonin; for frequency of apnea during REM sleep: intraperitoneal, serotonin 0.79 mg/kg alone vs saline
Experimental: as §1, §2
An accepted physiological animal model [rat; Monti, et al., Pharamcol. Biochem. Behav., 51:125-131; (1995)] of sleep apnea was used to assess the effects of a cannabinoid receptor agonist activity and/or agents having cannabimimetic activity. More specifically, sleep apneas, defined as cessation of respiratory effort for at least 2.5 seconds, were scored for each recording session and were associated with the stage in which they occurred: NREM or REM sleep. The duration requirement of 2.5 seconds represented at least 2 “missed” breaths, which is therefore analogous to a 10 second apnea duration requirement in humans, which also reflects 2-3 missed breaths. The events detected represent central apneas because decreased ventilation associated with obstructed or occluded airways would generate an increased plethysmographic signal, rather than a pause. An apnea index (AI), defined as apneas per hour in a stage was separately determined for NREM and REM sleep. The effects of sleep stage (NREM vs. REM) and injection (control vs. test compounds) were tested using ANOVA with repeated measures. Multiple comparisons were controlled using Fisher's protected least significant difference (PLSD). In addition, the timing and volume of each breath were scored by automatic analysis (Experimenters' Workbench; Datawave Technologies, Longmont, Colo.). […]

CB1 receptors = CB1 receptors (Homo sapiens, UniProt P21554); settings: cited from earlier work
CB2 receptors = CB2 receptors (Homo sapiens, UniProt P34972); settings: cited from earlier work
[5] = intraperitoneal, 0.1 mg/kg, administered alone
[6] = intraperitoneal, 1.0 mg/kg, vs vehicle
[7] = intraperitoneal, 10.0 mg/kg, vs vehicle
[8] = 0.1-10.0 mg/kg, sleep/wake states

CB1 receptors, sequence (P21554 whole entry): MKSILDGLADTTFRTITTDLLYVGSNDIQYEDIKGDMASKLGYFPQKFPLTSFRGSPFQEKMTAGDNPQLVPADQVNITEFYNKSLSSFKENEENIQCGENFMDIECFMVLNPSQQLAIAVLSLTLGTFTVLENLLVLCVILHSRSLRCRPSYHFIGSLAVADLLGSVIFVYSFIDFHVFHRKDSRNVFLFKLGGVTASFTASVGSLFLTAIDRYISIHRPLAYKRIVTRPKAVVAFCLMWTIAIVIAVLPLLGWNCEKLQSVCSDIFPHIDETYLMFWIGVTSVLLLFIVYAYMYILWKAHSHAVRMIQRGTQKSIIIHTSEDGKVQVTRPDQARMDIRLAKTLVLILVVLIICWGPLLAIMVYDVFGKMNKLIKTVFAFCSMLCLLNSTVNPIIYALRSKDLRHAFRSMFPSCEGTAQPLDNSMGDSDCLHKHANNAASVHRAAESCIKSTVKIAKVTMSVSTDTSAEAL
CB2 receptors, sequence (P34972 whole entry): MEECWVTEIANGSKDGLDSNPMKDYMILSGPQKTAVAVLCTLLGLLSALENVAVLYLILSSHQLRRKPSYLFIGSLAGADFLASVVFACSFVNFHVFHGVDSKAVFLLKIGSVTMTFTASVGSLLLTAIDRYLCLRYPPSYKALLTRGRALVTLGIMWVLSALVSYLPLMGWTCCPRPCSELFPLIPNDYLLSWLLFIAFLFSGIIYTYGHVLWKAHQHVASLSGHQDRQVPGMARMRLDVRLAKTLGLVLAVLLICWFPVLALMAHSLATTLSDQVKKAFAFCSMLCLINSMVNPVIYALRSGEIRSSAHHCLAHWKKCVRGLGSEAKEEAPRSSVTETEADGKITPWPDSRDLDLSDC

| SMILES | breaths with long duration in typical 6-hour recordings (FIG. 1A) (Sprague-Dawley rats [1]; 10.0 mg/kg) | apnea expression during REM sleep (Sprague-Dawley rats [1]; [5]) | frequency of apneas during NREM sleep (Sprague-Dawley rats [1]; [6]) | apnea expression during REM sleep (Sprague-Dawley rats [1]; [7]) | frequency of apneas during NREM sleep (Sprague-Dawley rats [1]; [7]) | time dependence of apnea suppression during the 6-hour recording period (Sprague-Dawley rats [1]; intraperitoneal) | degree of apnea suppression, Δ^9THC compared with oleamide (Sprague-Dawley rats [1]; intraperitoneal) | average respiratory rate (RR) (Sprague-Dawley rats [2]; 10.0 mg/kg, 6-hour recording) | average respiratory rate (RR) (Sprague-Dawley rats [2]; [8]) | respiratory minute ventilation (Sprague-Dawley rats [2]; 0.1-10.0 mg/kg) | serotonin-induced increase in REM sleep apnea (Sprague-Dawley rats [4]) | also measured |
| --- | --- | --- | --- | --- | --- | --- | --- | --- | --- | --- | --- | --- |
| CCCCCc1cc(O)c2c(c1)OC(C)(C)[C@@H]1CCC(C)=C[C@@H]21 [Δ^9THC, 9-tetrahydrocannabinol] | clear reduction in breaths with durations exceeding 1.5 seconds | neither Δ^9THC nor oleamide had any effect | reduced the frequency of apneas | significant decrease | reduced the frequency of apneas | not time-dependent | equivalent | significantly reduced in all sleep/wake states | dose dependent reduction in RR | Equivalent effects | completely blocked | spontaneous apnea during all sleep stages (Sprague-Dawley rats [1]; intraperitoneal, 0.1-10.0 mg/kg, 6-hour recording, vs vehicle): strongly suppressed spontaneous apnea; change in REM sleep expression (Sprague-Dawley rats [3]; highest dose tested (10.0 mg/kg), p=0.0002): −66% |
| CCCCCCCC/C=C\CCCCCCCC(N)=O [oleamide] | clear reduction in breaths with durations exceeding 1.5 seconds | neither Δ^9THC nor oleamide had any effect | suppressed apnea expression | suppressed apnea expression | suppressed apnea expression | persisted throughout the 6 hour recording interval | equivalent | tended to increase | dose dependent elevation of RR | Equivalent effects | completely blocked | frequency of apneas during NREM sleep (Sprague-Dawley rats [1]; intraperitoneal, 0.1 mg/kg, vs vehicle): suppressed apnea expression; apnea expression during REM sleep (Sprague-Dawley rats [1]; [6]): suppressed apnea expression; respiratory rate (RR), statistical significance of elevation (Sprague-Dawley rats [2]; 10.0 mg/kg vs. vehicle, p=0.03): achieved statistical significance only during wakefulness; sleep/wake architecture (Sprague-Dawley rats [3]; 0.1 mg/kg): increased REM sleep with decreased wakefulness; sleep/wake architecture (Sprague-Dawley rats [3]; 1.0 mg/kg): increased REM sleep with decreased wakefulness; sleep/wake architecture (Sprague-Dawley rats [3]; 10.0 mg/kg): increased NREM sleep with decreased REM sleep; binding affinity to CB1 receptors (CB1 receptors): does not appear to bind with high affinity; binding affinity to CB2 receptors (CB2 receptors): does not appear to bind with high affinity |
| NCCc1c[nH]c2ccc(O)cc12 [serotonin] |  |  |  |  |  |  |  |  |  |  |  | frequency of apnea during REM sleep (Sprague-Dawley rats [4]): significant increase in the frequency of apnea; frequency of apnea during REM sleep (Sprague-Dawley rats [4]; listed as Serotonin): significant increase in REM sleep-apnea |
